# Measurements taken from patent publication US9422264B2, “Carbamate-substituted oxindole derivatives and use thereof for the treatment of vasopressin-dependent diseases” (AbbVie Deutschland GmbH & Co. KG, priority 2007, dated 2016).
# Structures can show the parent of a compound that is named as a salt.
# What was measured:
# [1] = molecular target: T1, human vasopressin V1b receptor (Homo sapiens, UniProt P47901); assay: Vasopressin V1b receptor binding assay; settings: read-out: Ki(h-V1b)*
# T1 construct: expressed in transfected cells; host or cells: CHO-K1 (cell line hV1b_3H2_CHO)
# T1 sequence (P47901 1-424): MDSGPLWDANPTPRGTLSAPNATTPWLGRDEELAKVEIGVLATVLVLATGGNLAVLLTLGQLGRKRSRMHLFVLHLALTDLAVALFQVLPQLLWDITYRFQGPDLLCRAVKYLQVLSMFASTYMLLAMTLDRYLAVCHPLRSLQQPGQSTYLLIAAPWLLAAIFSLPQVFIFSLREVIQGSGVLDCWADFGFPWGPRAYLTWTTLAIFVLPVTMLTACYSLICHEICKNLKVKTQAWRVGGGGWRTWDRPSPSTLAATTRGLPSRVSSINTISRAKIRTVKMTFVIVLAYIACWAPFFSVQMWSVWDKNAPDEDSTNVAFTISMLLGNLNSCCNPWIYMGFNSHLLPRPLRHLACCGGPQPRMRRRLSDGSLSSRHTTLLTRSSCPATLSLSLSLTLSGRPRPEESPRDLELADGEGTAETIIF
# Method: 1. Vasopressin V1b Receptor Binding Assay:
# The substance concentration was further diluted 1:5 in the assay mixture (2% DMSO in the mixture).
# All determinations were carried out as triplicate determinations.
# [2] = molecular target: T2, recombinant human oxytocin receptors (Homo sapiens, UniProt P30559); assay: Oxytocin receptor binding assay; settings: selectivity quotient, human OT versus human V1b
# T2 construct: expressed in transfected cells; host or cells: HEK-293 (transient)
# T2 sequence (P30559 1-389): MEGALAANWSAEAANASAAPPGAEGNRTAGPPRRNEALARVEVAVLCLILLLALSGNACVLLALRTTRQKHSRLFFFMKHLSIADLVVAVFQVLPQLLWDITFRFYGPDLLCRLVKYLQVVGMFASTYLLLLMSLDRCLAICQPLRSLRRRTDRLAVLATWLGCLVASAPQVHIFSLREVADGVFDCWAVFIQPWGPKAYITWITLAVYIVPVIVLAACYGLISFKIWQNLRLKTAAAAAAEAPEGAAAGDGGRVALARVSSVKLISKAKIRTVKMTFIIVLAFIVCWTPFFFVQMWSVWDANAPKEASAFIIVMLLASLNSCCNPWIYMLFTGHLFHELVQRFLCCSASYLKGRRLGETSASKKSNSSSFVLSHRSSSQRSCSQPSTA
# Method: 4. Oxytocin Receptor Binding Assay
# Confluent HEK-293 cells with transiently expressing recombinant human oxytocin receptors were centrifuged at 750×g at room temperature for 5 minutes. The residue was taken up in ice-cold lysis buffer (50 mM Tris-HCl, 10% glycerol, pH 7.4 and Roche complete protease inhibitor) and subjected to an osmotic shock at 4° C. for 20 minutes. The lyzed cells were then centrifuged at 750×g at 4° C. for 20 minutes, the residue was taken up in incubation buffer, and aliquots of 10^7 cells/ml were prepared. The aliquots were frozen at −80° C. until used.
# On the day of the experiment, the cells were thawed, diluted with incubation buffer and homogenized using a Multipette Combitip (Eppendorf, Hamburg). […] The nonspecific binding was determined with 10^−6 M oxytocin (Bachem AG, H2510). Triplicate determinations were set up. Bound and free radioligand were separated by filtration under vacuum with Whatman GF/B glass fiber filters with the aid of a Skatron cell harvester 7000. The bound radioactivity was determined by liquid scintillation measurement in a Tricarb Beta counter, model 2000 or 2200CA (Packard).
# [3] = Determination of the microsomal half-life / microsomal clearance (human liver microsomes); assay type: in vitro ADME; settings: pH 7.4, 0.5 μM test substance
# Method: 5. Determination of the Microsomal Half-Life:
# The metabolic stability of the compounds of the invention was determined in the following assay.
# The test substances were incubated in a concentration of 0.5 μM as follows:
# 0.5 μM test substance are preincubated together with liver microsomes from different species (from rat, human or other species) (0.25 mg of microsomal protein/ml) in 0.05 M potassium phosphate buffer of pH 7.4 in microtiter plates at 37° C. for 5 min. The reaction is started by adding NADPH (1 mg/mL). After 0, 5, 10, 15, 20 and 30 min, 50 μl aliquots are removed, and the reaction is immediately stopped and cooled with the same volume of acetonitrile. The samples are frozen until analyzed. The remaining concentration of undegraded test substance is determined by MSMS. The half-life (T½) is determined from the gradient of the signal of test substance/unit time plot, it being possible to calculate the half-life of the test substance, assuming first order kinetics, from the decrease in the concentration of the compound with time. The microsomal clearance (mCl) is calculated from mCl=In2/T½/(content of microsomal protein in mg/ml)×1000 […] (modified from references: Di, The Society for Biomoleculur Screening, 2003, 453-462; Obach, DMD, 1999 vol. 27. N 11, 1350-1359).
# [4] = molecular target: human vasopressin V1a receptor (Homo sapiens, UniProt P37288); assay: Vasopressin V1a receptor binding assay; settings: selectivity quotient, human V1a versus human V1b
# Sequence of human vasopressin V1a receptor (P37288 whole entry): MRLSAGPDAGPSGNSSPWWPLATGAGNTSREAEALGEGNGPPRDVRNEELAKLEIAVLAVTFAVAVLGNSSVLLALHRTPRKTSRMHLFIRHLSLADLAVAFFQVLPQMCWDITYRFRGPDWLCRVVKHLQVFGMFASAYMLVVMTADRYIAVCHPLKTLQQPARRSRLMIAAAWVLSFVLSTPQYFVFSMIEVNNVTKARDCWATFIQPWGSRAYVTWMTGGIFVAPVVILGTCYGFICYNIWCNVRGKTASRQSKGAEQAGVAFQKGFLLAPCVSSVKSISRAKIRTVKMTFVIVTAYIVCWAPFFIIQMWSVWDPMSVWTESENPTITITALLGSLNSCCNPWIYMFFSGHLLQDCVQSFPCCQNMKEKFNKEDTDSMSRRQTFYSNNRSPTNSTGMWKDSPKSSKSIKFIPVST
SMILES,Ki [1] [nM],Ki(h-OT)/Ki(h-V1b)* [2],microsomal CLint at 0.5 μM [3] [µL/min/mg],Ki(h-V1a)/Ki(h-V1b)* [4]
"CCOc1ncccc1C1(OC(=O)N2CCC(N3CCNCC3)CC2)C(=O)N(S(=O)(=O)c2ccc(OC)cc2OC)c2ccc(C#N)cc21 (centres unmarked) [Example 55, 5-Cyano-1-[(2,4-dimethoxyphenyl)sulfonyl]-3-(2-ethoxypyridin-3-yl)-2-oxo-2,3-dihydro-1H-indol-3-yl-4-piperazin-1-ylpiperidine-1-carboxylate as bis(trifluoroacetic acid) salt]",< 10,+ (15-25),75 to 200,++ (>25-75)
"CCOc1ncccc1C1(OC(=O)N2CCC(N3CCN(CC)CC3)CC2)C(=O)N(S(=O)(=O)c2ccccc2)c2ccc(C#N)cc21 (racemic) [Example 40, (±)-5-Cyano-3-(2-ethoxypyridin-3-yl)-2-oxo-1-(phenylsulfonyl)-2,3-dihydro-1H-indol-3-yl 4-(4-ethylpiperazin-1-yl)piperidine-1-carboxylate]",< 10,+++ (>45),50 to 75,++ (>25-75)
